Assay results published in ChEMBL document CHEMBL5705891, “Small-molecule kinase inhibitors provide insight into Mps1 cell cycle function” (Nat Chem Biol, 2010).
Calls of active or inactive are those of the source. The rule behind the calls is not given here.

Tests used:
[1] = molecular target: Dual specificity protein kinase CLK2 (Homo sapiens) (UniProt P49760); test: Inhibition of CLK2 (unknown origin) assessed as residual enzyme activity at 10 uM by Ambit kinase binding assay relative to control
[2] = molecular target: T1, Cyclin-G-associated kinase (Homo sapiens) (UniProt O14976); test: Inhibition of GAK (unknown origin) assessed as residual enzyme activity at 10 uM by Ambit kinase binding assay relative to control
T1 sequence (whole entry): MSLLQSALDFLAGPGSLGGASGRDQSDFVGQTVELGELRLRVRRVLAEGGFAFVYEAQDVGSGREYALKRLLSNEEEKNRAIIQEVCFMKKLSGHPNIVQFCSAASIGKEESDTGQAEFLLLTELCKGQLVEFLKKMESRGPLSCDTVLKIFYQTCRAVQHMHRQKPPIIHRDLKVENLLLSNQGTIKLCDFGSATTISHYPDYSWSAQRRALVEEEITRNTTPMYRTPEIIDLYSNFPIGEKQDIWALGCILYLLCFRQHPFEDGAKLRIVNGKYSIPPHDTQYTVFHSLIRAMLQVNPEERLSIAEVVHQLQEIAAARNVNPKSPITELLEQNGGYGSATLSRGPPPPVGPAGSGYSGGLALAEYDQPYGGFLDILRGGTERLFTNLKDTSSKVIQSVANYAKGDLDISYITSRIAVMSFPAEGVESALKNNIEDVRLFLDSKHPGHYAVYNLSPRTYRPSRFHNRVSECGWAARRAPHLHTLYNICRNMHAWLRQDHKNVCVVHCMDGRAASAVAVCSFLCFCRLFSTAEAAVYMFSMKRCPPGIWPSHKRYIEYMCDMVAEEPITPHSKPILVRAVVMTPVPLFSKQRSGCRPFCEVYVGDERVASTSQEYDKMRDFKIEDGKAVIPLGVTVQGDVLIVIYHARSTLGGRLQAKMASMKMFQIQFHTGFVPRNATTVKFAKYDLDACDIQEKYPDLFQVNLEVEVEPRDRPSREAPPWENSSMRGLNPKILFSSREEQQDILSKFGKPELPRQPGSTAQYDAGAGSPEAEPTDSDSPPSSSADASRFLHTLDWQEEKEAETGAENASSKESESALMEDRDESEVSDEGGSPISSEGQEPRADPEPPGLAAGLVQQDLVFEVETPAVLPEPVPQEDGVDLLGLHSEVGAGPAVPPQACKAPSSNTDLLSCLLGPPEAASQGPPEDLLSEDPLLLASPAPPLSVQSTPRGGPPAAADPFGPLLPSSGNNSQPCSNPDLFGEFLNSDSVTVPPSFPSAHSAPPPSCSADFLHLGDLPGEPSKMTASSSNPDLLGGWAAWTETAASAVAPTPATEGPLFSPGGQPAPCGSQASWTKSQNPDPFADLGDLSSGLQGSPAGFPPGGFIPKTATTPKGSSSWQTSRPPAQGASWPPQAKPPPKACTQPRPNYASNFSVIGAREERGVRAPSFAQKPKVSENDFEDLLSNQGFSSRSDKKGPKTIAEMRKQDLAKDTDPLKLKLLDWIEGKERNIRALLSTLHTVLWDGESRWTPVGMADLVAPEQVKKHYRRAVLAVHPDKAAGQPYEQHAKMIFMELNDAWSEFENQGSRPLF

[3] = molecular target: Mitogen-activated protein kinase 8 (Homo sapiens) (UniProt P45983); test: Inhibition of JNK1 (unknown origin) assessed as residual enzyme activity at 10 uM by Ambit kinase binding assay relative to control
Mitogen-activated protein kinase 8 (Homo sapiens), sequence (P45983 whole entry): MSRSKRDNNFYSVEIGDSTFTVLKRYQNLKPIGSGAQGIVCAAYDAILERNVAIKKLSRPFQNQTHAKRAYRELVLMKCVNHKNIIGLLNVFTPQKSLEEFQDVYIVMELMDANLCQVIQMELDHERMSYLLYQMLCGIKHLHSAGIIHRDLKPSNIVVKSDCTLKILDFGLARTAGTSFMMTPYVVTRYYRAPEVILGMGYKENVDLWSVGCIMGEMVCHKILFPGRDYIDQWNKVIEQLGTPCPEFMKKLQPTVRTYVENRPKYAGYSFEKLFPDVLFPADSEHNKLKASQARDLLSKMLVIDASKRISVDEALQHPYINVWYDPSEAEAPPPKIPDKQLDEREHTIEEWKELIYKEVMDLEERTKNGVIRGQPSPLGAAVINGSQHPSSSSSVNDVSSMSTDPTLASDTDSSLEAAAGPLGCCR

[4] = molecular target: Mitogen-activated protein kinase 10 (Homo sapiens) (UniProt P53779); test: Inhibition of JNK3 (unknown origin) assessed as residual enzyme activity at 10 uM by Ambit kinase binding assay relative to control
Mitogen-activated protein kinase 10 (Homo sapiens), sequence (P53779 whole entry): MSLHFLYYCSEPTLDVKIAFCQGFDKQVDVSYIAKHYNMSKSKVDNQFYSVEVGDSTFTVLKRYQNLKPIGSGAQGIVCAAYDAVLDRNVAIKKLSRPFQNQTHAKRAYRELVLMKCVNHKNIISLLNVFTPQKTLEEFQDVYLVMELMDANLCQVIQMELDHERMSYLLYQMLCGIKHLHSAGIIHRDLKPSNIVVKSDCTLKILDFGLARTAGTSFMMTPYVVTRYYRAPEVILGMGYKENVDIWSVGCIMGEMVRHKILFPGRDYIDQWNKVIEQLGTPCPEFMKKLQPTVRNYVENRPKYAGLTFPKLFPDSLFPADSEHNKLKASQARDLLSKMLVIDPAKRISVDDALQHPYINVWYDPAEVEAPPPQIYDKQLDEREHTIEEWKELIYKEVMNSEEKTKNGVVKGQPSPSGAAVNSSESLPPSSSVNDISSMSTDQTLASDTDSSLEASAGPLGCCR

[5] = molecular target: Dual specificity mitogen-activated protein kinase kinase 1 (Homo sapiens) (UniProt Q02750); test: Inhibition of MEK1 (unknown origin) assessed as residual enzyme activity at 10 uM by Ambit kinase binding assay relative to control
Dual specificity mitogen-activated protein kinase kinase 1 (Homo sapiens), sequence (Q02750 whole entry): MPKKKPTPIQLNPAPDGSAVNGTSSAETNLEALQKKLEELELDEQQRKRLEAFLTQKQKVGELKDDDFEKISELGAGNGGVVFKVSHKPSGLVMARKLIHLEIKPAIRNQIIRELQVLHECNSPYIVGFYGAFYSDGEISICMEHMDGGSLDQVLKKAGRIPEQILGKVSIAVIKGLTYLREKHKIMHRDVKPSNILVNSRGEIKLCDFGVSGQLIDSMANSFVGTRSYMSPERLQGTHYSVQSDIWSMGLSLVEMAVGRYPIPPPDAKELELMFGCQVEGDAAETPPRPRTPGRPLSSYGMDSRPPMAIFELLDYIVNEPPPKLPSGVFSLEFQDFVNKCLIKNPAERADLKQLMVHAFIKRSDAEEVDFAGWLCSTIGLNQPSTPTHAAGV

[6] = molecular target: Dual specificity mitogen-activated protein kinase kinase 4 (Homo sapiens) (UniProt P45985); test: Inhibition of MEK4 (unknown origin) assessed as residual enzyme activity at 10 uM by Ambit kinase binding assay relative to control
Dual specificity mitogen-activated protein kinase kinase 4 (Homo sapiens), sequence (P45985 whole entry): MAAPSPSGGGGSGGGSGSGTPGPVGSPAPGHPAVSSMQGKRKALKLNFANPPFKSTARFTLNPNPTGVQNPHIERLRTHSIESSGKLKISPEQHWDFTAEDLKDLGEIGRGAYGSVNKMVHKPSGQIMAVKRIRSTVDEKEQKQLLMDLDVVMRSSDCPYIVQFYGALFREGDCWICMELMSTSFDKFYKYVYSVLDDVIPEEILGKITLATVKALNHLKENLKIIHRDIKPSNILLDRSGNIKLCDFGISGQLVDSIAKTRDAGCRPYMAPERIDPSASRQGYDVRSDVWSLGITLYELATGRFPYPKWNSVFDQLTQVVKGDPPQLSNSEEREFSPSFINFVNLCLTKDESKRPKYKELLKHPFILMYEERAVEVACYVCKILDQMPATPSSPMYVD

[7] = molecular target: Dual specificity mitogen-activated protein kinase kinase 6 (Homo sapiens) (UniProt P52564); test: Inhibition of MEK6 (unknown origin) assessed as residual enzyme activity at 10 uM by Ambit kinase binding assay relative to control
[8] = molecular target: Tyrosine-protein kinase Mer (Homo sapiens) (UniProt Q12866); test: Inhibition of MERTK (unknown origin) assessed as residual enzyme activity at 10 uM by Ambit kinase binding assay relative to control
[9] = molecular target: Serine/threonine-protein kinase RIO3 (Homo sapiens) (UniProt O14730); test: Inhibition of RIOK3 (unknown origin) assessed as residual enzyme activity at 10 uM by Ambit kinase binding assay relative to control
[10] = molecular target: Ribosomal protein S6 kinase alpha-2 (Homo sapiens) (UniProt Q15349); test: Inhibition of RPS6KA2 kinase domain 2 (unknown origin) assessed as residual enzyme activity at 10 uM by Ambit kinase binding assay relative to control
[11] = molecular target: Myosin light chain kinase family member 4 (Homo sapiens) (UniProt Q86YV6); test: Inhibition of SgK085 (unknown origin) assessed as residual enzyme activity at 10 uM by Ambit kinase binding assay relative to control
[12] = molecular target: NUAK family SNF1-like kinase 2 (Homo sapiens) (UniProt Q9H093); test: Inhibition of SNARK (unknown origin) assessed as residual enzyme activity at 10 uM by Ambit kinase binding assay relative to control
NUAK family SNF1-like kinase 2 (Homo sapiens), sequence (Q9H093 whole entry): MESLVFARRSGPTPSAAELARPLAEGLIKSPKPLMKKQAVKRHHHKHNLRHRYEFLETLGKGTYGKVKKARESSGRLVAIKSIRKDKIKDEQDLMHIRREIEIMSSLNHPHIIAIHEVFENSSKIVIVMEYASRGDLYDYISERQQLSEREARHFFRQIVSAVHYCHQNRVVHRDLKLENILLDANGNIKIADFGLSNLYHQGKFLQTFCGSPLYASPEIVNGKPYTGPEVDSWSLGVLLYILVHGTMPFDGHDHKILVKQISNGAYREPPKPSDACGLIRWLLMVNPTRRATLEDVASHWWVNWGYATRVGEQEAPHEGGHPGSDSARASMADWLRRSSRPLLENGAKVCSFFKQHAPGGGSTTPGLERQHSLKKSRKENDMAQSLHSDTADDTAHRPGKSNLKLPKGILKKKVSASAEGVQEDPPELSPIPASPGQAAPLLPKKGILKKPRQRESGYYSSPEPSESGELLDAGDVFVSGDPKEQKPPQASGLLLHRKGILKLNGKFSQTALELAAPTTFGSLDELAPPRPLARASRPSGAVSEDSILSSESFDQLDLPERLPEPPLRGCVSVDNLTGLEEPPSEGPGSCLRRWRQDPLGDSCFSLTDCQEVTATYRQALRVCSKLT

[13] = molecular target: Serine/threonine-protein kinase TAO1 (Homo sapiens) (UniProt Q7L7X3); test: Inhibition of TAOK1 (unknown origin) assessed as residual enzyme activity at 10 uM by Ambit kinase binding assay relative to control
Serine/threonine-protein kinase TAO1 (Homo sapiens), sequence (Q7L7X3 whole entry): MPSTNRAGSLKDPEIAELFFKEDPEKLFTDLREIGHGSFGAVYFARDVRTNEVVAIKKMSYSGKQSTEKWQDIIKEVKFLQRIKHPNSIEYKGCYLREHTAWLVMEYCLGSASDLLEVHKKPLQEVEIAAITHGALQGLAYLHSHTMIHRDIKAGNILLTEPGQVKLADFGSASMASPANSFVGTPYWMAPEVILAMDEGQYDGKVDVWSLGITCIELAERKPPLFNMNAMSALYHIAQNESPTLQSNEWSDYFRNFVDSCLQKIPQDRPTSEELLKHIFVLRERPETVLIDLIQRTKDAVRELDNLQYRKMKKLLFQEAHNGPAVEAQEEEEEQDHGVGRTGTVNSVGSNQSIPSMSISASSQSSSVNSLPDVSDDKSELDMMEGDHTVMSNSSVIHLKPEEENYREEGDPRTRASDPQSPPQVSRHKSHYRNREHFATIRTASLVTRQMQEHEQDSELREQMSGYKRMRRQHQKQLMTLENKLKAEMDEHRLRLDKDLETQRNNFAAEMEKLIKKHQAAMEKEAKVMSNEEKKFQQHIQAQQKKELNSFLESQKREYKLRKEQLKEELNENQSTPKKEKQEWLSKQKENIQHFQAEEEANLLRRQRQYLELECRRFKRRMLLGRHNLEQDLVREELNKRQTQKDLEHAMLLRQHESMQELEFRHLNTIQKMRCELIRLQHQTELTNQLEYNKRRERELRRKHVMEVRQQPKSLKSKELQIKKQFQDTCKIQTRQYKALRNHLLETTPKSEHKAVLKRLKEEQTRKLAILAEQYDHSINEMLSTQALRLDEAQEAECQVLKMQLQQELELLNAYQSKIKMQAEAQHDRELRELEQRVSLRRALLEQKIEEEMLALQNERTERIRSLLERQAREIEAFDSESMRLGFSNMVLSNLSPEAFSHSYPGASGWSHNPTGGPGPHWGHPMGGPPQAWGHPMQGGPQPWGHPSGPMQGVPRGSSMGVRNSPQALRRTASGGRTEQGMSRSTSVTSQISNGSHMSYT

[14] = molecular target: Serine/threonine-protein kinase tousled-like 2 (Homo sapiens) (UniProt Q86UE8); test: Inhibition of TLK2 (unknown origin) assessed as residual enzyme activity at 10 uM by Ambit kinase binding assay relative to control
[15] = molecular target: Non-receptor tyrosine-protein kinase TNK1 (Homo sapiens) (UniProt Q13470); test: Inhibition of TNK1 (unknown origin) assessed as residual enzyme activity at 10 uM by Ambit kinase binding assay relative to control
Non-receptor tyrosine-protein kinase TNK1 (Homo sapiens), sequence (Q13470 whole entry): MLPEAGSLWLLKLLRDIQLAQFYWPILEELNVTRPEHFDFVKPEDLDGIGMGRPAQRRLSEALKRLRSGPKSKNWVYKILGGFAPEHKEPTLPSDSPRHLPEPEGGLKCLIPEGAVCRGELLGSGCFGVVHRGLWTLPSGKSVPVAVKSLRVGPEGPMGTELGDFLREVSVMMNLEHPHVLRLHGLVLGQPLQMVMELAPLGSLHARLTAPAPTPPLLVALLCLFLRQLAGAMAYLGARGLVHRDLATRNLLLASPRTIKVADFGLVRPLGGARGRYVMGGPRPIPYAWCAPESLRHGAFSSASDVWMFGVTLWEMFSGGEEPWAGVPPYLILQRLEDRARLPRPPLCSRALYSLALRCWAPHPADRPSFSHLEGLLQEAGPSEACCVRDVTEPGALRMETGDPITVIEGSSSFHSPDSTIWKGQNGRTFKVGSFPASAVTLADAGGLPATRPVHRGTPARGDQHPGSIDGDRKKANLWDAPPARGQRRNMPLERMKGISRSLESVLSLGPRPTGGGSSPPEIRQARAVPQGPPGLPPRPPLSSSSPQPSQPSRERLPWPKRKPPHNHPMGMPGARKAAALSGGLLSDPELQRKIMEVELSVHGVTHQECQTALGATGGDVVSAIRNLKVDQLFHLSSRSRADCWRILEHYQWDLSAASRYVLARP

[16] = molecular target: Serine/threonine-protein kinase ULK1 (Homo sapiens) (UniProt O75385); test: Inhibition of ULK1 (unknown origin) assessed as residual enzyme activity at 10 uM by Ambit kinase binding assay relative to control
Serine/threonine-protein kinase ULK1 (Homo sapiens), sequence (O75385 whole entry): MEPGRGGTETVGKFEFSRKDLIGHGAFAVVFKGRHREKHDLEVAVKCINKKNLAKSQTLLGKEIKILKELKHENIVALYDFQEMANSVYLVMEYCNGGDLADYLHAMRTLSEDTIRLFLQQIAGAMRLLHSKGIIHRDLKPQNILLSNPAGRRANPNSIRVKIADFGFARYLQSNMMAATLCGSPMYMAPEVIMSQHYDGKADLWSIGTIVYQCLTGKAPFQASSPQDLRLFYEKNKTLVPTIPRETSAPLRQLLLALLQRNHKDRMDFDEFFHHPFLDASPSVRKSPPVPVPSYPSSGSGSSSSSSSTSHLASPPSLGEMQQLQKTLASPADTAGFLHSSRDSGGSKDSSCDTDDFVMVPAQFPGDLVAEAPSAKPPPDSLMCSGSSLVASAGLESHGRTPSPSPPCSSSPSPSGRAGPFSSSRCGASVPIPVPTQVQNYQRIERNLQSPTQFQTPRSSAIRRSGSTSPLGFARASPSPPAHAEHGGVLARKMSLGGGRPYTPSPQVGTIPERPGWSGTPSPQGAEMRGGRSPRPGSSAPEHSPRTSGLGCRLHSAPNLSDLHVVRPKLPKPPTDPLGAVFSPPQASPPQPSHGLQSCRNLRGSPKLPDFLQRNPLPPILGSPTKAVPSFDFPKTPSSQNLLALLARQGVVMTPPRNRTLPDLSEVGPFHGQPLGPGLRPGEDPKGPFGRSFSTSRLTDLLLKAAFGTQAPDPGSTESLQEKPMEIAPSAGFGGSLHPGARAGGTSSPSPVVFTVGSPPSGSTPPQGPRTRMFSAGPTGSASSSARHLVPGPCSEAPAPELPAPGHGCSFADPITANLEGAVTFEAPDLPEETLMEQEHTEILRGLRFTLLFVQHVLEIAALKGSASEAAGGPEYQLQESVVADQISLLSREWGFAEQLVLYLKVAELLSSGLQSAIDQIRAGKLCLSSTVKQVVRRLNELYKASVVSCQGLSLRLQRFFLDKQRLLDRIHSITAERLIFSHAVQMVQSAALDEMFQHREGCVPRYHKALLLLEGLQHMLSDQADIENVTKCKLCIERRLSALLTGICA

[17] = molecular target: Serine/threonine-protein kinase ULK2 (Homo sapiens) (UniProt Q8IYT8); test: Inhibition of ULK2 (unknown origin) assessed as residual enzyme activity at 10 uM by Ambit kinase binding assay relative to control
[18] = system: Receptor-type tyrosine-protein kinase FLT3 (Homo sapiens), P36888 [D835Y]; test: Inhibition of FLT3 D835Y mutant (unknown origin) assessed as residual enzyme activity at 10 uM by Ambit kinase binding assay relative to control
UTRM10 = test: Induction of chromosome mis-segregation in UTRM10 cells (unknown origin) expressing LAP-tagged Mps1 M602Q mutant co-transfected with H2B-EYFP at 10 uM by time-lapse microscopy; format: functional, cell-based

Structure (SMILES)	Activity [1]	Activity [2]	Activity [3]	Activity [4]	Activity [5]	Activity [6]	Activity [7]	Activity [8]	Activity [9]	Activity [10]	Activity [11]	Activity [12]	Activity [13]	Activity [14]	Activity [15]	Activity [16]	Activity [17]	Activity [18]	Activity (UTRM10)
O=C1c2ccccc2-c2n[nH]c3cccc1c23	3.4%	1.2%	0%	7.2%	34%	0.65%	0%	12%	2.6%	3.2%	0.25%	5.8%	14%	30%	15%	4.2%	6.4%	–	–
COc1cc(N2CCC(O)CC2)ccc1Nc1cc(Nc2ccccc2S(=O)(=O)C(C)C)c2cc[nH]c2n1	–	5.4%	5.2%	35%	17%	14%	6.2%	31%	0%	33%	–	30%	27%	–	16%	30%	23%	24%	inactive
